Assay results: patent publication US4482565A, “β-Lactam-containing antibacterial agents and β-lactamase inhibitors” (Farmitalia Carlo Erba S.p.A., priority 1981, dated 1984)
Read-outs that look alike come from different tables or passages of the source.

Assays:
Type in all cases: cell-based
[1] = tested on: Staphylococcus aureus 153; test: in vitro antibacterial activity (MIC); conditions: lactamase producer, read-out: MIC (minimal inhibitory concentration)
Proteus mirabilis 525 = test: in vitro antibacterial activity (MIC)
Escherichia coli R 6 K = test: in vitro antibacterial activity (MIC); conditions: R6K, read-out: MIC (minimal inhibitory concentration)
Proteus mirabilis V15 = test: in vitro antibacterial activity (MIC); conditions: read-out: MIC (minimal inhibitory concentration)
Salmonella panamae F15 = test: in vitro antibacterial activity (MIC)
Escherichia coli B = test: in vitro antibacterial activity (MIC); conditions: read-out: MIC (minimal inhibitory concentration)
Salmonella derby F14 = test: in vitro antibacterial activity (MIC); conditions: Salmonella enterica, read-out: MIC (minimal inhibitory concentration)
[2] = tested on: Salmonella abortivoequina; test: in vitro antibacterial activity (MIC); conditions: collection strain, read-out: MIC (minimal inhibitory concentration)
Klebsiella sp. R2 = test: in vitro antibacterial activity (MIC); conditions: read-out: MIC (minimal inhibitory concentration)
Escherichia coli P 453 = test: in vitro antibacterial activity (MIC)
[3] = tested on: Salmonella Saint Paul F20; test: in vitro antibacterial activity (MIC); conditions: read-out: MIC (minimal inhibitory concentration)
[4] = tested on: Salmonella montevideo F16; test: in vitro antibacterial activity (MIC); conditions: Salmonella enterica, read-out: MIC (minimal inhibitory concentration)
[5] = tested on: Staphylococcus aureus Smith; test: in vitro antibacterial activity (MIC); conditions: collection strain, read-out: MIC (minimal inhibitory concentration)
[6] = tested on: Klebsiella aerogenes ATCC 1082 E; test: in vitro antibacterial activity (MIC)
Proteus vulgaris V15 = test: in vitro antibacterial activity (MIC); conditions: read-out: MIC (minimal inhibitory concentration)
Escherichia coli R 46 = test: in vitro antibacterial activity (MIC)
Escherichia coli R 997 = test: in vitro antibacterial activity (MIC); conditions: R997, read-out: MIC (minimal inhibitory concentration)
[7] = tested on: Staphylococcus aureus 209P; test: in vitro antibacterial activity (MIC); conditions: collection strain, read-out: MIC (minimal inhibitory concentration)
[8] = tested on: Pseudomonas aeruginosa FI; test: in vitro antibacterial activity (MIC); conditions: collection strain, read-out: MIC (minimal inhibitory concentration)
Enterobacter cloacae 214 = test: in vitro antibacterial activity (MIC); conditions: lactamase producer, read-out: MIC (minimal inhibitory concentration)
Pseudomonas aeruginosa = test: in vitro antibacterial activity (MIC); conditions: read-out: MIC (minimal inhibitory concentration)
Shigella flexneri = test: in vitro antibacterial activity (MIC); conditions: read-out: MIC (minimal inhibitory concentration)
Protocol: A series of tests was carried out in vitro to compare the activities of (5R)-acetoxymethyl-2-acetoxymethyl-2-penum-3-carboxylate (Laboratory code FCE/20077/B40/341), (5R) acetoxymethyl-2-[(1-methyl-1H-tetrazol-5-yl)-thiomethyl]-2-penem-3-carboxylate (compound A), three reference compounds (ampicillin, cefoxitin, and thienamycin), and compound 387, which is (5R)-2-acetoxymethyl-6-(1-hydroxyethyl)-2-penem-3-carboxylic acid. The acetoxymethoxy ester of compound 387 is prepared in Example 51 and the sodium salt of the acid is prepared in Example 98 infra. Table 1 below reports the results of the above assays as MIC (minimal inhibitory concentration).

Escherichia coli R 57 B = test: in vitro antibacterial activity (MIC); conditions: R57B, read-out: MIC (minimal inhibitory concentration)
Streptococcus pyogenes = test: in vitro antibacterial activity (MIC); conditions: read-out: MIC (minimal inhibitory concentration)
[9] = tested on: Pseudomonas aeruginosa ATCC 2598; test: in vitro antibacterial activity (MIC); conditions: ATCC2598, collection strain, read-out: MIC (minimal inhibitory concentration)
[10] = tested on: Enterobacter cloacae P 99; test: in vitro antibacterial activity (MIC); conditions: P99, read-out: MIC (minimal inhibitory concentration)
Escherichia coli V23 = test: in vitro antibacterial activity (MIC); conditions: read-out: MIC (minimal inhibitory concentration)
Salmonella typhimurium [11] = test: in vitro antibacterial activity (MIC); conditions: Salmonella enterica, Salmonella typhimurium (first listing), read-out: MIC (minimal inhibitory concentration)
[12] = tested on: Klebsiella pneumoniae ATCC 10031; test: in vitro antibacterial activity (MIC), second listing of the strain; conditions: ATCC10031, collection strain (second listing), read-out: MIC (minimal inhibitory concentration)
[13] = tested on: Klebsiella pneumoniae ATCC 10031; test: in vitro antibacterial activity (MIC); conditions: ATCC10031, Klebsiella pneumoniae ATCC 10031 (first listing), read-out: MIC (minimal inhibitory concentration)
[14] = tested on: Staphylococcus aureus PV2; test: in vitro antibacterial activity (MIC); conditions: read-out: MIC (minimal inhibitory concentration)
Escherichia coli RGN 238 = test: in vitro antibacterial activity (MIC); conditions: RGN238, lactamase producer, read-out: MIC (minimal inhibitory concentration)
Enterobacter sp V19 = test: in vitro antibacterial activity (MIC); conditions: read-out: MIC (minimal inhibitory concentration)
Escherichia coli RP 1 = test: in vitro antibacterial activity (MIC); conditions: RP1, read-out: MIC (minimal inhibitory concentration)
Salmonella typhimurium [15] = test: in vitro antibacterial activity (MIC), collection strain; conditions: Salmonella enterica, read-out: MIC (minimal inhibitory concentration)
Escherichia coli B Cef R = test: in vitro antibacterial activity (MIC); conditions: read-out: MIC (minimal inhibitory concentration)
Escherichia coli V14 = test: in vitro antibacterial activity (MIC); conditions: read-out: MIC (minimal inhibitory concentration)
Proteus mirabilis = test: in vitro antibacterial activity (MIC), collection strain; conditions: read-out: MIC (minimal inhibitory concentration)
[16] = in vitro, Proteus mirabilis 525, read-out: MIC (minimal inhibitory concentration)
[17] = in vitro, Salmonella panamae F15, read-out: MIC (minimal inhibitory concentration)
[18] = in vitro, Escherichia coli B, collection strain
[19] = P453, in vitro, Escherichia coli P 453, lactamase producer, read-out: MIC (minimal inhibitory concentration)
[20] = ATCC1082, in vitro, Klebsiella aerogenes ATCC 1082 E, lactamase producer, read-out: MIC (minimal inhibitory concentration)
[21] = R46, in vitro, Escherichia coli R 46, lactamase producer, read-out: MIC (minimal inhibitory concentration)
[22] = in vitro, Escherichia coli R 57 B, lactamase producer
[23] = in vitro, Salmonella Typhimurium, collection strain (second listing)

Measured: MIC

CC1(C)S[C@@H]2[C@H](NC(=O)[C@H](N)c3ccccc3)C(=O)N2[C@H]1C(=O)O [Ampicillin]
1.56 µg/mL: [1] | Proteus vulgaris V15 | Escherichia coli V14
25 µg/mL: Escherichia coli R 46; [21] | Pseudomonas aeruginosa; in vitro | Escherichia coli R 57 B; [22] | [12]
≤ 0.19 µg/mL: Proteus mirabilis V15 | [5] | [7] | Shigella flexneri | [14]
0.19 µg/mL: [2]
> 100 µg/mL: Escherichia coli R 6 K | Escherichia coli P 453; [19] | [6]; [20] | Escherichia coli R 997 | [8] | Enterobacter cloacae 214 | [9] | [10] | Escherichia coli RGN 238 | Enterobacter sp V19 | Escherichia coli RP 1 | Escherichia coli B Cef R | Proteus mirabilis; in vitro, collection strain
50 µg/mL: Klebsiella sp. R2 | [13]
0.78 µg/mL: Salmonella panamae F15; [17] | Salmonella derby F14 | [3] | [4] | Salmonella typhimurium [11] | Salmonella typhimurium [15]; [23]
0.39 µg/mL: Proteus mirabilis 525; [16] | Escherichia coli B; [18]
3.12 µg/mL: Streptococcus pyogenes; in vitro | Escherichia coli V23

CO[C@@]1(NC(=O)Cc2cccs2)C(=O)N2C(C(=O)O)=C(COC(N)=O)CS[C@@H]21 [Cefoxitin]
> 100 µg/mL: Enterobacter cloacae 214 | [9] | Escherichia coli B Cef R
1.56 µg/mL: Proteus mirabilis 525; Proteus mirabilis, 525, read-out: MIC (minimal inhibitory concentration) | Salmonella panamae F15; Salmonella, F15, read-out: MIC (minimal inhibitory concentration) | Escherichia coli B; Escherichia coli | Escherichia coli P 453; Escherichia coli, P453, read-out: MIC (minimal inhibitory concentration) | Escherichia coli R 46; Escherichia coli, R46, read-out: MIC (minimal inhibitory concentration) | Escherichia coli R 57 B; Escherichia coli | Streptococcus pyogenes | Escherichia coli RP 1 | Salmonella typhimurium [15]; TYPHIMURIUM | Proteus mirabilis
12.5 µg/mL: Klebsiella sp. R2 | Escherichia coli V23 | Enterobacter sp V19
100 µg/mL: [10]
3.12 µg/mL: Salmonella derby F14 | [3] | [4] | Salmonella typhimurium [11] | Escherichia coli RGN 238 | Escherichia coli V14
0.78 µg/mL: [1] | Proteus mirabilis V15 | [2] | [5] | Proteus vulgaris V15 | [7] | Shigella flexneri | [12] | [13] | [14]
6.25 µg/mL: [6]; Klebsiella aerogenes, ATCC1082, read-out: MIC (minimal inhibitory concentration) | Escherichia coli R 997 | [8] | Pseudomonas aeruginosa
3.1 µg/mL: Escherichia coli R 6 K

CC(=O)OCOC(=O)C1=C(CSc2nnnn2C)S[C@@H]2CC(=O)N12 [Compound A, (5R)-Acetoxymethyl-2-[(1-methyl-1-H-tetrazol-5-yl)-thiomethyl]-2-penem-3-carboxylate]
3.12 µg/mL: [13]
> 100 µg/mL: Enterobacter sp V19
6.25 µg/mL: Proteus vulgaris V15
0.39 µg/mL: [5] | [7] | Pseudomonas aeruginosa; in vitro | Shigella flexneri
0.78 µg/mL: [1] | Proteus mirabilis 525; [16] | Proteus mirabilis V15 | Salmonella panamae F15; [17] | Escherichia coli B; [18] | Salmonella derby F14 | [3] | [4] | Streptococcus pyogenes; in vitro | Escherichia coli V23 | Salmonella typhimurium [11] | [14] | Escherichia coli V14

CC(=O)OCC1=C(C(=O)O)N2C(=O)C(C(C)O)[C@H]2S1 (stereo partly drawn) [Example 387, (5R)-2-acetoxymethyl-6-(1-hydroxyethyl)-2-penem-3-carboxylic acid]
12.5 µg/mL: Enterobacter cloacae 214
3.12 µg/mL: [10]
0.095 µg/mL: [7]
1.56 µg/mL: [6]; [20] | [8] | Pseudomonas aeruginosa; in vitro
0.045 µg/mL: [1] | [5]
> 25 µg/mL: [9]
0.39 µg/mL: Salmonella typhimurium [11] | Escherichia coli RP 1 | Salmonella typhimurium [15]; [23] | Proteus mirabilis; in vitro, collection strain
25 µg/mL: Escherichia coli B Cef R
0.19 µg/mL: [2] | Streptococcus pyogenes; in vitro
0.78 µg/mL: Escherichia coli R 6 K | Escherichia coli B; [18] | Escherichia coli P 453; [19] | Escherichia coli R 46; [21] | Escherichia coli R 997 | Escherichia coli R 57 B; [22] | [12] | Escherichia coli RGN 238

CC(=O)OCOC(=O)C1=C(COC(C)=O)S[C@@H]2CC(=O)N12 [FCE/20077/B40/341, (5R)-Acetoxymethyl-2-acetoxymethyl-2-penem-3-carboxylate]
12.5 µg/mL: Enterobacter sp V19
≤ 0.19 µg/mL: [5]
3.12 µg/mL: Proteus mirabilis 525; [16] | Salmonella derby F14 | [4] | Proteus vulgaris V15 | Pseudomonas aeruginosa; in vitro | Streptococcus pyogenes; in vitro | Escherichia coli V23
1.56 µg/mL: [1] | Salmonella panamae F15; [17] | Escherichia coli B; [18] | [3] | Salmonella typhimurium [11] | Escherichia coli V14
0.39 µg/mL: Proteus mirabilis V15 | [7] | Shigella flexneri | [14]
25 µg/mL: Klebsiella sp. R2

C[C@@H](O)[C@H]1C(=O)N2C(C(=O)O)=C(SCCN)C[C@H]12 [Thienamycin]
12.5 µg/mL: [8] | Pseudomonas aeruginosa | Escherichia coli B Cef R
≤ 0.39 µg/mL: [7]
1.56 µg/mL: [6]; [20] | [12]
0.36 µg/mL: Escherichia coli R 997 | Escherichia coli RGN 238 | Escherichia coli RP 1
0.78 µg/mL: Escherichia coli R 6 K | Escherichia coli B; [18] | Escherichia coli P 453; [19]
